Laboratory results as given in patent publication US20030148954A1, “Agents and methods for modulating activator protein-1-mediated cellular processes” (Wisconsin Alumni Research Foundation, priority 2001, published 2003).

Assays:
Assay type in all cases: cell-based, human
ERK1/2 = assay: Western blot with phospho-specific antibodies, ERK1/2; conditions: K562-NIC-1 versus K562-Babe, 5 nM TPA 30 min
Experimental: (§1) Stable Transfection—K562 cells were stably transfected by electroporation with a Bio-Rad Gene pulser electroporator. Cells (5×10^6) were washed with ice-cold PBS, resuspended in 0.5 ml of ice-cold PBS, mixed with 5 μg linearized plasmid DNA, and subjected to electroporation (960 microfarad; 220 V) in a 0.4 cm-wide electroporation cuvette (BTX). pBabe and pNIC-1 were linearized with NotI. Cells were then added to 20 ml of complete IMEM, grown for 48 h, and diluted in complete IMEM containing 1.5 μg/ml puromycin (pools of K562-Babe and K562-NIC-1 cells). Stably transfected cells were analyzed for erythroid differentiation as soon as the pools were generated by benzidine staining to reduce the probability of phenotypic changes that may result from prolonged growth.
(§2) To measure the phosphorylation state of components of the MAPK pathway, K562-Babe and K562-NIC-1 cells (1×10^6) were collected after treatment with 5 nM TPA or DMSO for 30 min. Cells were washed once with ice-cold PBS, cell pellets were resuspended in 30 μl ice-cold PBS and were immediately boiled in 70 μl SDS sample buffer for 10 min. Proteins (10 μl) were resolved by SDS-PAGE on a 10% acrylamide gel and transferred to Immobilon P membrane (Millipore). […] Antigen-antibody complexes were detected with ECL Plus™ (Amersham Life Science) according to manufacturer's instructions.

GAL4-c-Jun = GAL4-c-Jun transactivation, transient assays in K562 cells; conditions: K562, data not presented
CSL (CBF1) = assay: CSL-dependent (p4×CBF1luc) luciferase reporter, transient transfection of K562 cells
From the text: Plasmids—The pBabe-NIC-1 (pNIC-1) expression vector encoding constitutively active Notch-1 (NIC-1) was described previously (36,37,51). This vector was derived from the pBabe-puro retroviral vector and includes a cDNA sequence encoding amino acids 1759-2556 of human Notch-1 with a Myc tag fused to its carboxyl terminus. Human NIC-1 deletion mutants were generated by PCR using a full-length human Notch-1 expression vector as the template. The Notch-dependent reporter plasmid containing four CBF1 binding sites and an simian virus 40 promoter fused to luciferase (p4×CBF1luc) was described previously (52). The AP-1 reporter plasmid (p1×AP1luc) containing a collagenase promoter fragment (−73/+67) with a single AP-1 binding site in the luciferase reporter vector pGL2-basic (Promega) was described previously (53). The NF-κB reporter plasmid (p3×κBluc) containing three NF-κB binding sites and a minimal promoter fused to luciferase was a kind gift of Dr. Shigeki Miyamoto (University of Wisconsin Medical School). […]
For each transfection, cells were incubated for 26 h after transfection and then treated with TPA (final concentration: 5 nM) or the vehicle (DMSO). […] Luciferase activity was normalized by the protein content of the lysates, determined by Bradford assay using γ-globulin as a standard.

p38 = assay: Western blot with phospho-specific antibodies, p38; conditions: K562-NIC-1 versus K562-Babe, 5 nM TPA 30 min
Experimental: as §1, §2

Substance: NIC-1: constitutively active Notch-1 intracellular domain, amino acids 1759-2556 of human Notch-1 with carboxyl-terminal Myc tag, expressed from pBabe-NIC-1
- basal and TPA-induced ERK1/2 phosphorylation (ERK1/2): slightly higher
- inhibition of GAL4-c-Jun-mediated transactivation (GAL4-c-Jun): did not significantly inhibit
- activation of CSL-dependent reporter activity (CSL (CBF1)): strongly activated
- effect on TPA-induced or basal phosphorylation of p38 (p38): did not affect
